Literature values, collected in patent US6689588B1, “Garlic alliinase covalently bound to carrier for continuous production of allician” (Yeda Research and Development Co. Ltd., priority 1996, dated 2004).

Tests used:
[1] = Cavallito et al., 1944
[2] = system: bacteria, fungi, amebae; settings: Cavallito et al., 1944; Barone and Tansey, 1977; Mirelman et al., 1987

C=CCS[S+]([O-])CC=C (centres unmarked) [allicin, thio-2-propene-1-sulfinic acid S-allyl ester]
chemical stability [1]: chemically unstable
antimicrobial activity [2]: antibacterial, antifungal and antiamebic activity
